A value given as a limit tells only on which side of the number the result lay.

Data set [1] has as its target T1, MurX (Mycobacterium tuberculosis, UniProt P9WMW7).
In data set [2] the target is T1, MurX. The class given is biochemical. The note with it: for IC50: neryl phosphate assay, obtained three times, ± standard error of the mean; for MurX inhibition (%) 0.1 μM: inhibitor 0.1 μM; for MurX inhibition (%) 0.1 μM / MurX inhibition (%) 1 μM / MurX inhibition (%) 10 μM / MurX inhibition (%) 100 μM: 2 75 μM, neryl phosphate 6, P-60, 26 °C, 3h; for MurX inhibition (%) 1 μM: inhibitor 1 μM; for MurX inhibition (%) 10 μM: inhibitor 10 μM; for MurX inhibition (%) 100 μM: inhibitor 100 μM.

Data set [3] relates to MraY-MurG. The note with it: no reference given; cited from earlier work.
Data set [4] can be described thus: Water-solubility. The class given is physicochemical.

T1 sequence (P9WMW7 whole entry): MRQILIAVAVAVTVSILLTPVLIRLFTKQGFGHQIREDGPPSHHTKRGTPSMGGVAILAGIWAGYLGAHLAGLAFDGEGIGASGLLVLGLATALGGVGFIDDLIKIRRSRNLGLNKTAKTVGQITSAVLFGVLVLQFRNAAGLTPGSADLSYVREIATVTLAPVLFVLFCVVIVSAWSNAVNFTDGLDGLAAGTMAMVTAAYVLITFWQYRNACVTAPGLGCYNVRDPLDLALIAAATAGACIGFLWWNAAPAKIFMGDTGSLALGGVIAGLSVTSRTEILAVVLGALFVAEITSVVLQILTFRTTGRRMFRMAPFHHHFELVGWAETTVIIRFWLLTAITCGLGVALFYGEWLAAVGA

Take “Park’s nucleotide-N^ε-dansylthiourea [compound 2]”: in data set [1], the Km came out at 17.9 µM and the “Vmax for neryl-lipid I synthesis by MurX” value is 0.00269 µM/s.

For `CC(C)=CCC/C(C)=C\COP(=O)(O)O` [compound 6, neryl phosphate], half-maximal inhibition in data set [2] (IC50) required 152 nM.

In the case of `CN[C@H](CC(C)C)C(=O)N[C@H]1C(=O)N[C@@H](CC(N)=O)C(=O)N[C@H]2C(=O)N[C@H]3C(=O)N[C@H](C(=O)N[C@H](C(=O)O)c4cc(O)cc(O)c4-c4cc3ccc4O)[C@H](O)c3ccc(c(Cl)c3)Oc3cc2cc(c3O[C@@H]2O[C@H](CO)[C@@H](O)[C@H](O)[C@H]2O[C@H]2C[C@](C)(N)[C@H](O)[C@H](C)O2)Oc2ccc(cc2Cl)[C@H]1O` [Vancomycin], the MurX inhibitory activity result in data set [2] (even at 100 μM concentrations) was “did not inhibit MurX”. In data set [2], the “MurX inhibition (%) 0.1 μM” value worked out at 0%, the “MurX inhibition (%) 1 μM” value is given as 0%, the “MurX inhibition (%) 10 μM” value came out at 0% and the “MurX inhibition (%) 100 μM” value is listed as 0%. The “activity in MraY-MurG coupled assays” value in data set [3] was “good activity”.

On to “N-glycolyl Park’s nucleotide-N^ε-dansylthiourea [compound 1]”, for which the Km in data set [1] was 18.1 µM.

`CO[C@H]1[C@@H](O)[C@H](n2ccc(=O)[nH]c2=O)O[C@@H]1[C@@H](O[C@H]1OC(C(=O)N[C@H]2CCCCNC2=O)=C[C@H](O)[C@@H]1O)C(N)=O` [Capuramycin (7), Capuramycin]: in data set [2], the “MurX inhibition (%) 0.1 μM” value is reported as 36.6%, the “MurX inhibition (%) 1 μM” value was 88.4%, the “MurX inhibition (%) 10 μM” value stood at 100% and the “MurX inhibition (%) 100 μM” value is on record as 100%.

Tunicamycin [Tunicamycin (9)]: in data set [2], the “MurX inhibition (%) 0.1 μM” value was found to be 9%, the “MurX inhibition (%) 1 μM” value turned out to be 42%, the “MurX inhibition (%) 10 μM” value is 72% and the “MurX inhibition (%) 100 μM” value is on record as 72%. In data set [2], this compound yielded an IC50 of 2730 ± 138 nM.

Take “neryl-lipid I-N^ε-dansylthiourea [compound 5]”: in data set [4], the water-solubility was above 50 µg/mL.

One may read the Km as the substrate concentration at which the rate is half of its maximum. In general, IC50 refers to the concentration that gives 50% inhibition.

The record behind these values is PMC4296562 (Analytical biochemistry, 2014).
